{"source": "ChEMBL document CHEMBL6182942", "about": "“Discovery of a Selective, Novel TGF-βR1 Inhibitor GFH018 for the Treatment of Solid Tumors” (J Med Chem, 2025)", "key": {"[1]": {"assay": "Metabolic stability in human liver microsomes assessed as parent compound remaining at 1 uM preincubated for 5 mins followed by NADPH addition by LC-MS/MS analysis", "assay_type": "ADME, Microsome", "conditions": "read-out: Stability"}, "[2]": {"assay": "Clearance in CD-1 mouse at 1 mg/kg, iv by LC-MS/MS analysis", "assay_type": "ADME, organism-based", "conditions": "in vivo"}, "[3]": {"system": "CD14-positive cell", "assay": "(§1) Immunostimulatory activity in human PBMC derived M-CSF stimulated CD14-positive cells assessed as increase in TNFalpha level at 0.1 to 10 uM supplemented with fresh medium containing compound on day 1, 3 and 5 followed by M-CSF/IL-4/IL-13 stimulation for 2 days with subsequent LPS induction and measured after 16 hrs", "assay_type": "functional, cell-based", "conditions": "dose 0.1-10 µM, time 7.0 day"}, "[4]": {"target": "Cytochrome P450 2D6 (Homo sapiens, UniProt P10635)", "sequence (P10635 whole entry)": "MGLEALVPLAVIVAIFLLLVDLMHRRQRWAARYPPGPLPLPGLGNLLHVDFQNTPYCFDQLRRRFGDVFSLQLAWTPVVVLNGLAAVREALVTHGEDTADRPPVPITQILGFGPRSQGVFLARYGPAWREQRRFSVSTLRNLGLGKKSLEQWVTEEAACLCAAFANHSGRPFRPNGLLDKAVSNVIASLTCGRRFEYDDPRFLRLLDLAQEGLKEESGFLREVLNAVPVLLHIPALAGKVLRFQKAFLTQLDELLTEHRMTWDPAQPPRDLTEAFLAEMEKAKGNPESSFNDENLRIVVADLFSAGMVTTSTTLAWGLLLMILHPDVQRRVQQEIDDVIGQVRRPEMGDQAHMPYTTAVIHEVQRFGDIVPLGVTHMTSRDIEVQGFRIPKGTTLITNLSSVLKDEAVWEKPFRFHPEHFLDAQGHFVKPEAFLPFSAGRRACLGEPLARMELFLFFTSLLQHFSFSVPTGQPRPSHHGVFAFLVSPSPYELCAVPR", "assay": "Inhibition of CYP2D6 in human liver microsomes using dextromethorphan as substrate preincubated for 10 mins followed by NADPH regeneration system addition and measured after 20 mins by LC-MS/MS analysis", "assay_type": "ADME, Microsome"}, "[5]": {"system": "H22", "assay": "Antitumor activity against mouse H22 cells implanted in po dosed BALB/c mouse assessed as tumor growth inhibition administered twice daily for 11 days and measured 3 times per week during compound dosing", "assay_type": "functional, organism-based", "conditions": "dose lower […], dose upper 50.0 mg/kg, time 11.0 day"}, "[6]": {"assay": "Intrinsic clearance in human hepatocytes at 1 uM measured after 90 mins by LC-MS/MS analysis", "assay_type": "ADME, cell-based, Hepatocyte", "conditions": "read-out: CLH"}, "[7]": {"target": "Cytochrome P450 1A2 (Homo sapiens, UniProt P05177)", "sequence (P05177 whole entry)": "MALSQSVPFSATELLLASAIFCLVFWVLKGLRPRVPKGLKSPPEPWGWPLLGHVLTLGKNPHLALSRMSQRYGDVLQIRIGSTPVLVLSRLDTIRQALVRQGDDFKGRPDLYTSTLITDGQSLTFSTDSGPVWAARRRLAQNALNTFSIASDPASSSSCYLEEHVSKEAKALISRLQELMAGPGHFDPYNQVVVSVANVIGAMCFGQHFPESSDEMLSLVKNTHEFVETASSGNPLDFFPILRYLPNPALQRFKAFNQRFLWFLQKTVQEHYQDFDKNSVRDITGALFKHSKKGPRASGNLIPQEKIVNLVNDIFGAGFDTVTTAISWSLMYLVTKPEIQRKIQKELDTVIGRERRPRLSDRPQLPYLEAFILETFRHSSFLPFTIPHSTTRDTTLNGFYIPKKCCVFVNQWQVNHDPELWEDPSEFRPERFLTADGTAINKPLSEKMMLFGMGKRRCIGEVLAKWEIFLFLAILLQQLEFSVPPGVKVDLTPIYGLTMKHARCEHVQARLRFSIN", "assay": "Inhibition of CYP1A2 in human liver microsomes using phenacetin as substrate preincubated for 10 mins followed by NADPH regeneration system addition and measured after 10 mins by LC-MS/MS analysis", "assay_type": "ADME, Microsome"}, "[8]": {"target": "Activin receptor type-1B (Homo sapiens) (UniProt P36896)", "sequence (P36896 whole entry)": "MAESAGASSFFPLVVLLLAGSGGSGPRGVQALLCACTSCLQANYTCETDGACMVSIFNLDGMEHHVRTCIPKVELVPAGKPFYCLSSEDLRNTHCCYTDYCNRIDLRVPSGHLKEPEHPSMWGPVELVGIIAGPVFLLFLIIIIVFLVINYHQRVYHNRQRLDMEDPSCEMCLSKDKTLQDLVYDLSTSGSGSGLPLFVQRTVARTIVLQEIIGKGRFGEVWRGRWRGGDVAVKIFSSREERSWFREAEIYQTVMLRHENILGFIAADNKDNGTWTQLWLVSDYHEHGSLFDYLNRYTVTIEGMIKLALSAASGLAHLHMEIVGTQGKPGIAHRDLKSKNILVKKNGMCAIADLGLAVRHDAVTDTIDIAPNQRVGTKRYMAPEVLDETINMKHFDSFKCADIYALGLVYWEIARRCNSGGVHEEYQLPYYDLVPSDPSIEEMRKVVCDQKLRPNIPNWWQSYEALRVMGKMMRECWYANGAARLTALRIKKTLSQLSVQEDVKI", "assay": "Inhibition of ALK4 (unknown origin) assessed as residual activity at 1 uM relative to control"}, "[9]": {"assay": "Metabolic stability in mouse liver microsomes assessed as parent compound remaining at 1 uM preincubated for 5 mins followed by NADPH addition by LC-MS/MS analysis", "assay_type": "ADME, Microsome", "conditions": "read-out: Stability"}, "[10]": {"assay": "Kinetic solubility of the compound in pH 7.4 aqueous buffer", "assay_type": "physicochemical", "conditions": "read-out: Kinetic_solubility"}, "[11]": {"assay": "Oral bioavailability in Beagle dog at 5 mg/kg via gavage by LC-MS/MS analysis", "assay_type": "ADME, organism-based, Canis lupus familiaris", "conditions": "in vivo"}, "[12]": {"target": "T1, TGF-beta receptor type-1 (Homo sapiens, UniProt P36897)", "T1 sequence (P36897 whole entry)": "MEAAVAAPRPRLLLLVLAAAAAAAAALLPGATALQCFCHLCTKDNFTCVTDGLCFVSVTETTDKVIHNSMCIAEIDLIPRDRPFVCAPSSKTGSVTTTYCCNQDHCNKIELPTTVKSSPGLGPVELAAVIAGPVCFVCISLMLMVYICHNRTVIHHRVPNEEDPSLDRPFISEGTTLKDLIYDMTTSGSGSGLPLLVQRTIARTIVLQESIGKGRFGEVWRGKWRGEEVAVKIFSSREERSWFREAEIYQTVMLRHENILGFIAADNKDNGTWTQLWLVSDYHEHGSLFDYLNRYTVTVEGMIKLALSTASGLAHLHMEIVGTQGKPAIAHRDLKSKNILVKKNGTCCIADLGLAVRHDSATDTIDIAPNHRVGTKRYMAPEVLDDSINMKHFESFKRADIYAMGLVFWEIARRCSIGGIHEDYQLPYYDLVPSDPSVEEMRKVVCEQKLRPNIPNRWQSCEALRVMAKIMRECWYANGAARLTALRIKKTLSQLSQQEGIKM", "assay": "Inhibition of human TGFbetaR1 expressed in HEK293 cells co-expressing SBE assessed as reduction in TGFbeta/activin A-induced SMAD phosphorylation preincubated for 4 to 5 hrs followed by TGFbeta/activin A stimulation and measured after 18 hrs by luciferase reporter gene assay", "assay_type": "cell-based"}, "[13]": {"system": "4T1-Luc", "assay": "Antimetastatic activity against mouse 4T1-Luc cells implanted in BALB/c mouse assessed as reduction in metastatic rate in liver at 100 mg/kg, po administered daily for 32 days and measured on day 30 to 35 by IVIS fluorescence analysis", "assay_type": "functional, organism-based", "conditions": "time 35.0 day"}, "[14]": {"target": "TRAF2 and NCK-interacting protein kinase (Homo sapiens) (UniProt Q9UKE5)", "sequence (Q9UKE5 whole entry, looked up)": "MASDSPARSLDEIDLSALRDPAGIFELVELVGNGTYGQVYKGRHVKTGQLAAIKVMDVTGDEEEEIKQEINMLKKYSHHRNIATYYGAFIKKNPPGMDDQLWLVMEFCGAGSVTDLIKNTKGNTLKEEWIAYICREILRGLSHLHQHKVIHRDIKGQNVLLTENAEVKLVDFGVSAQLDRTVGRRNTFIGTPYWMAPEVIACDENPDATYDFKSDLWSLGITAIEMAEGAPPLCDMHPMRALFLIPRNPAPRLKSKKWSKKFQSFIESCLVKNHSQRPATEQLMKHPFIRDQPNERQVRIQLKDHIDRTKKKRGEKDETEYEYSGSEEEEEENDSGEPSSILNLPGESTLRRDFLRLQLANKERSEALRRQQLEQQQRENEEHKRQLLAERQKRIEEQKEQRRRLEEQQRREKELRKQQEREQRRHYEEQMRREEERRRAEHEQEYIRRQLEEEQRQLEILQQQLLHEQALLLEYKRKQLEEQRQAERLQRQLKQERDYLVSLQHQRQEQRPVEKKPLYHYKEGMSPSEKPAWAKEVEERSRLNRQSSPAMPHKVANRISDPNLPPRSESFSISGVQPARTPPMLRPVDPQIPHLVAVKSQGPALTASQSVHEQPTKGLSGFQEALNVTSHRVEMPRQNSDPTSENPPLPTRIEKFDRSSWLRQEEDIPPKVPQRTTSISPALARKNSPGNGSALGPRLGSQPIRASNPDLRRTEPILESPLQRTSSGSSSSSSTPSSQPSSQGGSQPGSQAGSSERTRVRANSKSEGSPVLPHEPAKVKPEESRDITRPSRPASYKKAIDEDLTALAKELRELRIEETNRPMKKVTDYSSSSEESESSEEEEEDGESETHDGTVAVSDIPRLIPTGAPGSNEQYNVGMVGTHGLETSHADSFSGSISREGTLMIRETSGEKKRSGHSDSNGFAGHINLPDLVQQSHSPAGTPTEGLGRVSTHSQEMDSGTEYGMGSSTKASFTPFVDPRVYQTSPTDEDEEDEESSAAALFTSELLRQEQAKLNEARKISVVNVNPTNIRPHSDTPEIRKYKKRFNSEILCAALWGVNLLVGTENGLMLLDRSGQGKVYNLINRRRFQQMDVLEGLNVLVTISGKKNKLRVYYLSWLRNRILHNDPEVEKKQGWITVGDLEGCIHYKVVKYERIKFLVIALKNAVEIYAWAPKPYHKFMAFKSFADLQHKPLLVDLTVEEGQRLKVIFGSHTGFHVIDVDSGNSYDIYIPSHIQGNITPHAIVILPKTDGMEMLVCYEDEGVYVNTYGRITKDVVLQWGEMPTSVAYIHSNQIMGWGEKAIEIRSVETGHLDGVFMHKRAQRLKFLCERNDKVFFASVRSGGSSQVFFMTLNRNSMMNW", "assay": "Inhibition of TNIK (unknown origin) assessed as residual activity at 1 uM relative to control"}, "[15]": {"target": "Cytochrome P450 2C8 (Homo sapiens, UniProt P10632)", "sequence (P10632 whole entry)": "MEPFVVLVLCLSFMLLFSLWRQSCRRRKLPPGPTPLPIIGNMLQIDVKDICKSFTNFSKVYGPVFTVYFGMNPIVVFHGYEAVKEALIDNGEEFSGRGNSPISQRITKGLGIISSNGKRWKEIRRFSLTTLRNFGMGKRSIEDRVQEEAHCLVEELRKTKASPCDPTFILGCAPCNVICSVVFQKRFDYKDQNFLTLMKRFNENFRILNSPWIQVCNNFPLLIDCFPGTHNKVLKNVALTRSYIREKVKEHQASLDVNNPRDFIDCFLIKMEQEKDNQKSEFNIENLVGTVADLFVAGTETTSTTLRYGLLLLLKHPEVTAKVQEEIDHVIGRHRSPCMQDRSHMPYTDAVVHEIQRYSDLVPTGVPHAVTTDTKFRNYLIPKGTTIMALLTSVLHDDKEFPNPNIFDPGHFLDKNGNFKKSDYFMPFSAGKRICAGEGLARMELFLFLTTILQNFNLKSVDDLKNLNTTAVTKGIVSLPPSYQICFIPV", "assay": "Inhibition of CYP2C8 in human liver microsomes using amodiaquine as substrate preincubated for 10 mins followed by NADPH regeneration system addition and measured after 10 mins by LC-MS/MS analysis", "assay_type": "ADME, Microsome"}, "[16]": {"target": "Voltage-gated inwardly rectifying potassium channel KCNH2 (Homo sapiens, UniProt Q12809)", "sequence (Q12809 whole entry)": "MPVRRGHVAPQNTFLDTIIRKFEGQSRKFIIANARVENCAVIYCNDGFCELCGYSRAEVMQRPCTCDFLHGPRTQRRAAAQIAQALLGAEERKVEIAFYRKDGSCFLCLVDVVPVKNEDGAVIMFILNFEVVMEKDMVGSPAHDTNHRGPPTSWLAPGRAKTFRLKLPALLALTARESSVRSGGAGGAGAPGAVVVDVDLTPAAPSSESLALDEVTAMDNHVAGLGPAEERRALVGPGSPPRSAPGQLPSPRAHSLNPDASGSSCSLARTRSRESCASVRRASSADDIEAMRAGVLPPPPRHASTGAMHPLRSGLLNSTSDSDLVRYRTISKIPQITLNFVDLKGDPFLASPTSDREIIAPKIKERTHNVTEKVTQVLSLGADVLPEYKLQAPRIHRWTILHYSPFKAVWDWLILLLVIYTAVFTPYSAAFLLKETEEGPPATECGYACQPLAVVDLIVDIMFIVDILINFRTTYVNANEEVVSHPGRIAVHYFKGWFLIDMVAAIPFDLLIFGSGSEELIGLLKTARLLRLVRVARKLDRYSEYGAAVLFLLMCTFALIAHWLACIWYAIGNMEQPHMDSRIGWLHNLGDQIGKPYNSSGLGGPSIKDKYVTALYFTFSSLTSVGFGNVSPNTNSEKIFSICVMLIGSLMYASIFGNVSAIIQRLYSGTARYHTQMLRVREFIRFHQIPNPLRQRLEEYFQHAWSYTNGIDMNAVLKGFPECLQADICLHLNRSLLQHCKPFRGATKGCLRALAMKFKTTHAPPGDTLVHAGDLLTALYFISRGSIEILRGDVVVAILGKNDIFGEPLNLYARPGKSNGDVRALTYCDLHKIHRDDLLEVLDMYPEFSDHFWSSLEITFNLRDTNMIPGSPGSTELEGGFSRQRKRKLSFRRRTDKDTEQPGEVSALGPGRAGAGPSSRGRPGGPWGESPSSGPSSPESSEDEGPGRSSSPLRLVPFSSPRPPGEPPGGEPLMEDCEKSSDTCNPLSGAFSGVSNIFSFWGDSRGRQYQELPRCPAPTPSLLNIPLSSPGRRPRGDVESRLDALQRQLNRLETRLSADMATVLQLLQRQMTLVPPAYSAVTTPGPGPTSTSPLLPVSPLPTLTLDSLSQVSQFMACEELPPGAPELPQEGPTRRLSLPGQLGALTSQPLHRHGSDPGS", "assay": "Inhibition of human ERG stably expressed in HEK293 cells measured at holding potential of -80 mV by manual patch clamp assay", "assay_type": "toxicity, cell-based"}, "[17]": {"assay": "Protein binding in cynomolgus monkey plasma at 0.2 to 10 uM measured after 4 hrs by equilibrium dialysis based LC-MS/MS analysis", "assay_type": "ADME, cell-free, Macaca fascicularis", "conditions": "dose 0.2-10 µM, read-out: PPB (converted)"}, "[18]": {"system": "H22", "assay": "Antitumor activity against mouse H22 cells implanted in BALB/c mouse assessed as tumor growth inhibition at 15 mg/kg, po administered twice daily for 11 days and measured 3 times per week during compound dosing relative to control", "assay_type": "functional", "conditions": "H22, 264 h, time 11 day, read-out: TGI"}, "[19]": {"system": "T-cell", "assay": "Immunostimulatory activity in TGFbeta/anti-CD3 stimulated BALB/c mouse naive T cells assessed as reduction in Treg induction at 0.1 to 10 uM measured after 4 days by immunostaining based flow cytometry", "assay_type": "functional", "conditions": "dose 0.1-10 µM, time 4.0 day"}, "[20]": {"assay": "Protein binding in Sprague-Dawley rat plasma at 0.2 to 10 uM measured after 4 hrs by equilibrium dialysis based LC-MS/MS analysis", "assay_type": "ADME, cell-free", "conditions": "dose 0.2-10 µM, read-out: PPB (converted)"}, "[21]": {"assay": "Clearance in Beagle dog at 1 mg/kg, iv by LC-MS/MS analysis", "assay_type": "ADME, organism-based, Canis lupus familiaris", "conditions": "in vivo"}, "[22]": {"assay": "Drug metabolism in monkey liver microsomes", "assay_type": "ADME, Macaca mulatta, Microsome", "conditions": "rhesus monkey"}, "[23]": {"assay": "Drug metabolism in mouse liver microsomes", "assay_type": "ADME, Microsome"}, "[24]": {"system": "CD14-positive cell", "assay": "as §1, with “IL-6” for “TNFalpha”", "assay_type": "functional, cell-based", "conditions": "dose 0.1-10 µM, time 7.0 day"}, "[25]": {"target": "Tyrosine-protein kinase Lck (Homo sapiens) (UniProt P06239)", "sequence (P06239 2-509 limits assumed)": "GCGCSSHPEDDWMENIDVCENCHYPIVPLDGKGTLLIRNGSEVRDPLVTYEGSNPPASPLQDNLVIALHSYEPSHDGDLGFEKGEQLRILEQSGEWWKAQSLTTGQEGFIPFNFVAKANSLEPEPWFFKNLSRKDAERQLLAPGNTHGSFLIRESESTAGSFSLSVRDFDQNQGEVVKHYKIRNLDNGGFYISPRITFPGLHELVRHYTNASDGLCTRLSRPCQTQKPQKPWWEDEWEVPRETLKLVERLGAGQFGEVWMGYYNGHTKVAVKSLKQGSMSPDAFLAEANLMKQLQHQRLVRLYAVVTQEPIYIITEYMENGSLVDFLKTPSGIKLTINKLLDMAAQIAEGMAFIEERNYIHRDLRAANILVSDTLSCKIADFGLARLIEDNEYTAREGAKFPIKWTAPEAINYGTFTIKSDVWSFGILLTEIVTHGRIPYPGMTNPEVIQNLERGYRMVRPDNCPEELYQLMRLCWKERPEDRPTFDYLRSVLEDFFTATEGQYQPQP", "assay": "Inhibition of LCK (unknown origin) assessed as residual activity at 1 uM relative to control"}, "[26]": {"system": "CD14-positive cell", "assay": "as §1, with “reduction” for “increase”, “IL-10” for “TNFalpha”", "assay_type": "functional, cell-based", "conditions": "dose 0.1-10 µM, time 7.0 day"}, "[27]": {"assay": "Mutagenicity in Salmonella typhimurium TA100 by Ames test", "assay_type": "toxicity", "conditions": "salmonella enterica subsp. enterica serovar typhimurium"}, "[28]": {"assay": "Tmax in mouse H22 cell implanted BALB/c mouse at 15 to 50 mg/kg, po administered twice daily for 11 days", "assay_type": "ADME, organism-based", "conditions": "in vivo, dose 15-50 mg/kg, time 11 day"}, "[29]": {"assay": "Mutagenicity in Salmonella typhimurium TA98 by Ames test", "assay_type": "toxicity", "conditions": "salmonella enterica subsp. enterica serovar typhimurium"}, "[30]": {"assay": "Lipophilicity, log D of the compound", "assay_type": "physicochemical", "conditions": "octanol/water"}, "[31]": {"assay": "Drug metabolism in rat hepatocytes", "assay_type": "ADME, cell-based, Hepatocyte"}, "[32]": {"assay": "Volume of distribution at steady state in CD-1 mouse at 1 mg/kg, iv by LC-MS/MS analysis", "assay_type": "ADME, organism-based", "conditions": "in vivo, read-out: Vdss"}}, "note": "Activity calls are given as the source filed them. No cut-off for these calls is given here."}
{"smiles": "Cc1cccc(-c2nn3c(c2-c2ccc4ncnn4c2/C=C/C(N)=O)CCC3)n1", "values": [{"measurement": "remaining at 1 µM", "setting": "[1]", "value": 87.5, "unit": "%"}, {"measurement": "clearance", "setting": "[2]", "value": 63.3, "unit": "mL/min/kg"}, {"measurement": "Activity", "setting": "[3]", "value": "Active"}, {"measurement": "IC50", "setting": "[4]", "value": "> 100", "unit": "µM"}, {"measurement": "TGI", "setting": "[5]", "value": "Dose-dependent-effect"}, {"measurement": "CLint scaled at […], 1 µM", "setting": "[6]", "value": "< 6.9", "unit": "mL/min/kg"}, {"measurement": "IC50", "setting": "[7]", "value": "> 100", "unit": "µM"}, {"measurement": "Activity", "setting": "[8]", "value": "< 50", "unit": "%"}, {"measurement": "remaining at 1 µM", "setting": "[9]", "value": 20.7, "unit": "%"}, {"measurement": "solubility kinetic", "setting": "[10]", "value": 185, "unit": "µM"}, {"measurement": "bioavailability", "setting": "[11]", "value": 65.5, "unit": "%"}, {"measurement": "IC50", "setting": "[12]", "value": 0.105, "unit": "µM"}, {"measurement": "Activity", "setting": "[13]", "value": "Active"}, {"measurement": "Activity", "setting": "[14]", "value": "< 50", "unit": "%"}, {"measurement": "IC50", "setting": "[15]", "value": "> 100", "unit": "µM"}, {"measurement": "IC50", "setting": "[16]", "value": "> 30", "unit": "µM"}, {"measurement": "fraction unbound at 4 h, up to 10 µM", "setting": "[17]", "value": 0.522}, {"measurement": "inhibition in vivo at 15 mg/kg", "setting": "[18]", "value": 50.8, "unit": "%"}, {"measurement": "Activity", "setting": "[19]", "value": "Active"}, {"measurement": "fraction unbound at 4 h, up to 10 µM", "setting": "[20]", "value": 0.376}, {"measurement": "clearance", "setting": "[21]", "value": 9.29, "unit": "mL/min/kg"}, {"measurement": "Drug metabolism", "setting": "[22]", "value": "metabolite_detected"}, {"measurement": "Drug metabolism", "setting": "[23]", "value": "metabolite_detected"}, {"measurement": "Activity", "setting": "[24]", "value": "Active"}, {"measurement": "Activity", "setting": "[25]", "value": "< 50", "unit": "%"}, {"measurement": "Activity", "setting": "[26]", "value": "Active"}, {"measurement": "Activity", "setting": "[27]", "value": "Non-toxic"}, {"measurement": "Tmax", "setting": "[28]", "value": 1, "unit": "h"}, {"measurement": "Activity", "setting": "[29]", "value": "Non-toxic"}, {"measurement": "logD", "setting": "[30]", "value": 1.36}, {"measurement": "Drug metabolism", "setting": "[31]", "value": "metabolite_detected"}, {"measurement": "Vd", "setting": "[32]", "value": 1.4, "unit": "L/kg"}]}
